Read-outs that look alike come from different tables or passages of the source.
How the values were obtained:
RPMI-8226 myeloma cells = test: Anti-myeloma activity, inhibition of cell proliferation; format: cell-based; conditions: Homo sapiens, 72 hours incubation, cell count
Description: After incubation in RPMI-1640 (containing 10% FBS and 1% Penn-strep) for 72 hours, cell count was determined and IC50 values were calculated as inhibitory effect against cell proliferation (referring to Journal of Clinical Pathology, 2006, 59, 947-951.).

[1] = target: cytidine deaminase: CDA (1-146aa), Human, His-tagged, Recombinant (Homo sapiens, UniProt P32320); test: Stability against cytidine deaminase (HPLC)
Description: Stability of Silyl Etherified Derivatives of 5-azacytidines in Carbohydrate Moiety Against Cytidine Deaminase
About 1 mg each of the silyl etherified derivatives of 5-azacytidines in carbohydrate moiety (referring to formula (1a)) was dissolved in 1 mL of acetonitrile. 10 μL of the solution was diluted with 1 mL of PBS. 10 μL of PBS solution of cytidine deaminase was added to the solution and stirred at 37° C. for about 1 hour. 1 mL of acetonitrile was added to the reaction solution and separated by centrifugation. The supernatant was analyzed with HPLC.
Cytidine deaminase: CDA (1-146aa), Human, His-tagged, Recombinant cytidine deaminase (ATGen)
Column: CAPCELL PAK ADME (4.6 mm×150 mm, particle size: 3 μm)
Elution: eluate A=Purified water containing 10 mM ammonium formate • eluate B=Acetonitrile • Gradient mode: A:B=99:1→5:95/30 minutes

[2] = Non-enzymatic hydrolysis in PBS solution at 37° C. (HPLC); format: physicochemical; conditions: 10 mM PBS; for 5-Azacytidine or 2′-deoxy-5-azacytidine (%) After 4 hours / 5-Azacytidine or 2′-deoxy-5-azacytidine (%) After 8 hours / 5-Azacytidine or 2′-deoxy-5-azacytidine (%) After 24 hours: released parent by HPLC; for production of the desilylated parent (5-azacytidine or 2′-deoxy-5-azacytidine): traced by HPLC
Description: Non-Enzymatic Hydrolysis of Silyl Etherified Derivatives of 5-Azacytidines in Carbohydrate Moiety
5 μL of the solution was added to 100 μL of 10 mM PBS solution and stirred at 37° C. The reactions were traced by HPLC analysis.
HPLC conditions were same as those in test example 1.

[3] = PBS, cytidine deaminase, 37° C., about 1 hour, peak of the starting material

cytidine deaminase: CDA (1-146aa), Human, His-tagged, Recombinant, sequence (P32320 whole entry): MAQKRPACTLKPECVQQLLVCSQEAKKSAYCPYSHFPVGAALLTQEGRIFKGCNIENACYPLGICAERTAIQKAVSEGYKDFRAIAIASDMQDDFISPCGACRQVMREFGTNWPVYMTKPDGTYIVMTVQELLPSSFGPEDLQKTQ

SMILES | IC50 (RPMI-8226 myeloma cells) [nM] | stability against cytidine deaminase (in words) ([1]; PBS, cytidine deaminase, 37° C.) | Change in HPLC pattern [1, 3] | Change in HPLC pattern [1] | 5-Azacytidine or 2′-deoxy-5-azacytidine (%) After 4 hours [2] [%] | 5-Azacytidine or 2′-deoxy-5-azacytidine (%) After 8 hours [2] [%] | 5-Azacytidine or 2′-deoxy-5-azacytidine (%) After 24 hours [2] [%] | production of the desilylated parent (5-azacytidine or 2′-deoxy-5-azacytidine) [2]
Nc1ncn([C@H]2C[C@H](O)[C@@H](CO)O2)c(=O)n1 [2′-Deoxy-5-azacytidine, 2′-deoxy-5-azacytidine, reference compound] | 30 | disappeared completely | The peak of the starting material disappeared | – | – | – | – | –
CC(C)(C)[Si](C)(C)OC[C@H]1O[C@@H](n2cnc(N)nc2=O)[C@H](O)[C@@H]1O [compound E, 5′-O-(tert-Butyldimethylsilyl)-5-azacytidine] | – | – | – | Almost no change in the peak of the starting | – | – | – | –
CC[Si](CC)(CC)OC[C@H]1O[C@@H](n2cnc(N)nc2=O)[C@H](O)[C@@H]1O [compound J, 5′-O-Triethylsilyl-5-azacytidine] | 656 | – | – | Almost no change in the peak of the starting | 16 | 22 | 62 | production of 5-azacytidine was confirmed
CC[Si](CC)(CC)OC[C@H]1O[C@@H](n2cnc(N)nc2=O)C[C@@H]1O [compound K, 5′-O-Triethylsilyl-2′-deoxy-5-azacytidine] | 270 | – | Almost no change in the peak of the starting | – | 10 | 12 | 48 | production of corresponding deskill form (2′-deoxy-5-azacytidine) was confirmed

— patent publication US10227374B2, “Silyl etherified derivatives of 5-azacytidines in carbohydrate moiety” (OHARA PHARMACEUTICAL CO., LTD., priority 2016, dated 2019)
